Reference: US10820591B2, “Substituted sulfonyl amides for controlling animal pests” (Bayer Aktiengesellschaft, priority 2016, dated 2020)

What was measured:
Assay type in all cases: in vivo
Tetranychus urticae = Tetranychus urticae spray test, OP-resistant; settings: foliar, 144 h, bean leaf discs, after 6 days, read-out: efficacy
Experimental: Tetranychus urticae—Spray Test, OP-Resistant
(§1) To produce a suitable active compound preparation, 1 part by weight of active compound is dissolved with the specified parts by weight of solvent and made up to the desired concentration with water containing an emulsifier concentration of 1000 ppm. To produce further test concentrations, the formulation is diluted with emulsifier-containing water.
Discs of bean leaves (Phaseolus vulgaris) infested with all stages of the greenhouse red spider mite (Tetranychus urticae) are sprayed with an active compound preparation of the desired concentration.
After 6 days, the efficacy in % is determined. 100% means that all the spider mites have been killed; 0% means that no spider mites have been killed.

Nezara viridula = Nezara viridula spray test; settings: 500 g/ha, barley plants, after 4 days
Experimental: Nezara viridula—Spray Test [table] To produce a suitable active compound preparation, 1 part by weight of active compound is dissolved with the specified parts by weight of solvent and made up to the desired concentration with water containing an emulsifier concentration of 1000 ppm. To produce further test concentrations, the formulation is diluted with emulsifier-containing water. Barley plants (Hordeum vulgare) infected with larvae of the Southern green shield bug (Nezara viridula) are sprayed with an active compound preparation of the desired concentration. After 4 days, the efficacy in % is determined. 100% means that all of the shield bugs have been killed; 0% means that none of the shield bugs have been killed.

Ctenocephalides felis = Ctenocephalides felis oral test; settings: 100 ppm, after 2 days
Experimental: Ctenocephalides felis—Oral Test Solvent: dimethyl sulfoxide To produce a suitable active compound preparation, 10 mg of active compound are mixed with 0.5 ml of dimethyl sulfoxide. Dilution with citrated cattle blood gives the desired concentration. About 20 unfed adult cat fleas (Ctenocephalides felis) are placed into a chamber which is closed at the top and bottom with gauze. A metal cylinder whose bottom end is closed with parafilm is placed onto the chamber. The cylinder contains the blood/active compound preparation, which can be imbibed by the fleas through the parafilm membrane. After 2 days, the kill in % is determined. 100% means that all of the fleas have been killed; 0% means that none of the fleas have been killed.

Meloidogyne incognita = Meloidogyne incognita test (sand, lettuce, gall formation); settings: Meloidogyne incognita, 336 h, 20 ppm, after 14 days; read-out: nematicidal efficacy (formation of galls)
Outline: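 Vessels held sand, diluted compound solution, M. incognita egg/larvae suspension and lettuce seeds, and the plants grew for 14 days. Efficacy in % came from root gall formation: 100% means no galls, 0% means galls equal to the untreated control.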

Phaedon cochleariae = Phaedon cochleariae spray test; settings: 500 g/ha, Chinese cabbage leaf discs, after 7 days
Experimental: Phaedon cochleariae—Spray Test
as §1
After 7 days, the efficacy in % is determined. 100% means that all the beetle larvae have been killed; 0% means that no beetle larvae have been killed.

Nilaparvata lugens = Nilaparvata lugens test; settings: 500 g/ha, spray, rice plants, after 4 days
Experimental: Nilaparvata lugens Test [table] To produce a suitable active compound preparation, 1 part by weight of active compound is dissolved with the specified parts by weight of solvent and made up to the desired concentration with water containing an emulsifier concentration of 1000 ppm. To produce further test concentrations, the formulation is diluted with emulsifier-containing water. Rice plants (Oryza sativa) are sprayed with the active compound preparation of the desired concentration and then infected with larvae of the brown planthopper (Nilaparvata lugens). After 4 days, the efficacy in % is determined. 100% means that all of the planthoppers have been killed; 0% means that none of the planthoppers have been killed.

Boophilus microplus = Boophilus microplus injection test; settings: 20 μg/animal, after 7 days
Experimental: Boophilus microplus—Injection Test Solvent: dimethyl sulfoxide To produce a suitable active compound preparation, 10 mg of active compound are mixed with 0.5 ml of solvent and the concentrate is diluted to the desired concentration with solvent. 1 μl of the active compound solution is injected into the abdomen of 5 engorged adult female cattle ticks (Boophilus microplus). The animals are transferred into dishes and kept in a climate-controlled room. Efficacy is assessed after 7 days by laying of fertile eggs. Eggs which are not visibly fertile are stored in a climate-controlled cabinet until the larvae hatch after about 42 days. An efficacy of 100% means that none of the ticks has laid any fertile eggs; 0% means that all the eggs are fertile.

Lucilia cuprina = Lucilia cuprina test; settings: 100 ppm, L1 larvae, after 2 days
Experimental: Lucilia cuprina Test Solvent: dimethyl sulfoxide To produce a suitable active compound preparation, 10 mg of active compound are mixed with 0.5 ml of dimethyl sulfoxide, and the concentrate is diluted with water to the desired concentration. About 20 L1 larvae of the Australian sheep blowfly (Lucilia cuprina) are transferred into a test vessel containing minced horsemeat and the active compound preparation of the desired concentration. After 2 days, the kill in % is determined. 100% means that all the larvae have been killed; 0% means that no larvae have been killed.

Myzus persicae [1] = test: Myzus persicae spray test (Chinese cabbage leaf discs); settings: foliar, 144 h, 500 g/ha, after 6 days, read-out: efficacy
Experimental: Myzus persicae—Spray Test [table] To produce a suitable active compound preparation, 1 part by weight of active compound is dissolved with the specified parts by weight of solvent and made up to the desired concentration with water containing an emulsifier concentration of 1000 ppm. To produce further test concentrations, the formulation is diluted with emulsifier-containing water. Discs of Chinese cabbage leaves (Brassica pekinensis) infested by all stages of the green peach aphid (Myzus persicae) are sprayed with an active compound preparation of the desired concentration. After 6 days, the efficacy in % is determined. 100% means that all the aphids have been killed; 0% means that no aphids have been killed.

Spodoptera frugiperda = Spodoptera frugiperda spray test; settings: 500 g/ha, maize leaf discs, after 7 days
Experimental: Spodoptera frugiperda—Spray Test [table] To produce a suitable active compound preparation, 1 part by weight of active compound is dissolved with the specified parts by weight of solvent and made up to the desired concentration with water containing an emulsifier concentration of 1000 ppm. To produce further test concentrations, the formulation is diluted with emulsifier-containing water. Leaf discs of maize (Zea mays) are sprayed with an active compound preparation of the desired concentration and, after drying, populated with caterpillars of the armyworm (Spodoptera frugiperda). After 7 days, the efficacy in % is determined. 100% means that all the caterpillars have been killed; 0% means that no caterpillar has been killed.

Diabrotica balteata = Diabrotica balteata spray test; settings: 160 μg/well, after 7 days
Experimental: Diabrotica balteata—Spray Test [table] To produce a suitable active compound preparation, 1 part by weight of active compound is dissolved with the specified parts by weight of solvent and made up to the desired concentration with water containing an emulsifier concentration of 1000 ppm. To produce further test concentrations, the formulation is diluted with emulsifier-containing water. Pre-swollen wheat grains (Triticum aestivum) are incubated in a multiwell plate filled with agar and a little water for one day (5 seed grains per cavity). The germinated wheat grains are sprayed with an active compound preparation of the desired concentration. Subsequently, each cavity is infected with 10-20 beetle larvae of Diabrotica balteata. After 7 days, the efficacy in % is determined. 100% means that all maize plants have grown as in the untreated, uninfected control; 0% means that no maize plant has grown.

Myzus persicae [2] = test: Myzus persicae oral test; settings: 120 h, 20 ppm, after 5 days, read-out: efficacy
Experimental: (§2) Myzus persicae—Oral Test [table] To produce a suitable active compound preparation, 1 part by weight of active compound is dissolved with the stated parts by weight of solvent and made up to the desired concentration with water. 50 μl of the active compound preparation are transferred into microtitre plates and made up to a final volume of 200 μl with 150 μl of IPL41 insect medium (33%+15% sugar). Subsequently, the plates are sealed with parafilm, which a mixed population of green peach aphids (Myzus persicae) within a second microtitre plate is able to puncture and imbibe the solution through it. After 5 days, the efficacy in % is determined. 100% means that all the aphids have been killed; 0% means that no aphids have been killed.

Myzus persicae [3] = test: Myzus persicae spray test (bell pepper plants); settings: 100 ppm, after 6 days
Experimental: Myzus persicae—Spray Test [table] To produce a suitable active compound preparation, 1 part by weight of active compound is dissolved with the specified parts by weight of solvent and made up to the desired concentration with water containing an emulsifier concentration of 1000 ppm. To produce further test concentrations, the formulation is diluted with emulsifier-containing water. If the addition of ammonium salts or/and penetrants is required, these are each added in a concentration of 1000 ppm to the formulation solution. Bell pepper plants (Capsicum annuum) severely infested with the green peach aphid (Myzus persicae) are treated by spraying with the active compound preparation in the desired concentration. After 6 days, the kill in % is determined. 100% means that all of the aphids have been killed; 0% means that none of the aphids have been killed.

Aphis gossypii = Aphis gossypii oral test; settings: 100 ppm, after 5 days
Experimental: as §2, with “Aphis gossypii—Oral” for “Myzus persicae—Oral”, “the cotton aphid (Aphis gossypii)” for “green peach aphids (Myzus persicae)”

Structure (SMILES) | pest or weed control at 20 ppm (Meloidogyne incognita) | efficacy (Phaedon cochleariae) | efficacy (Nilaparvata lugens) | efficacy (laying of fertile eggs) (Boophilus microplus) | other results
COc1cccc(S(=O)(=O)NC(=O)c2ncn(CCC(F)(F)F)c2Cl)c1 [I-032] | 90% | 83% | 100% | 90% | pest or weed control at 500 g/ha (Tetranychus urticae): 90%; efficacy (Nezara viridula): 100%; efficacy (kill in %) (Ctenocephalides felis): 70%
Cc1cccc(S(=O)(=O)NC(=O)c2ncn(CCC(F)(F)F)c2Cl)c1 [I-035] | 90% | 100% | 100% | 100% | efficacy (Nezara viridula): 100%; efficacy (kill in %) (Lucilia cuprina): 100%
COc1ccc(S(=O)(=O)NC(=O)c2ncn(CCC(F)(F)F)c2Cl)cc1C [I-037] | 100% | 83% | – | – | –
O=C(NS(=O)(=O)c1ccccc1)c1ncn(C2CC2C(F)(F)F)c1Cl (stereo not drawn) [I-059] | 100% | 83% | – | 100% | pest or weed control at 500 g/ha (Tetranychus urticae): 90%; pest or weed control at 500 g/ha (Myzus persicae [1]): 70%; efficacy (Spodoptera frugiperda): 100%
O=C(NS(=O)(=O)c1ccccc1Cl)c1ncn(C2CC2C(F)(F)F)c1Cl (stereo not drawn) [I-060] | 90% | – | – | 70% | pest or weed control at 500 g/ha (Tetranychus urticae): 90%; pest or weed control at 500 g/ha (Myzus persicae [1]): 70%; efficacy (Spodoptera frugiperda): 100%
COc1ccc(S(=O)(=O)NC(=O)c2ncn(C(C)CC(F)(F)F)c2Cl)cc1 (stereo not drawn) [I-070] | 100% | – | 100% | – | –
O=C(NS(=O)(=O)c1ccccc1Cl)c1nc(Br)n(CCC(F)(F)F)c1Br [I-107] | 100% | – | 100% | – | –
COc1ccc(Cl)c(S(=O)(=O)NC(=O)c2nc(Cl)n(CCC(F)(F)F)c2Cl)c1 [I-118] | 100% | – | – | – | efficacy (Diabrotica balteata): 100%
O=C(NS(=O)(=O)c1ccccc1Cl)c1cn(Cc2ccccc2Cl)cn1 [I-156] | 100% | – | – | – | efficacy (Spodoptera frugiperda): 100%
Cc1nc(C(=O)NS(=O)(=O)c2ccccc2)cn1-c1cccc(Cl)c1Cl [I-268] | 100% | – | – | 80% | pest or weed control at 500 g/ha (Myzus persicae [1]): 90%; pest or weed control at 20 ppm (Myzus persicae [2]): 90%
O=C(NS(=O)(=O)c1cccc(Cl)c1)c1cn(-c2cc(Cl)cc(C(F)(F)F)c2)cn1 [I-300] | 70% | 100% | – | – | –
Cc1nc(C(=O)NS(=O)(=O)c2ccccc2Cl)cn1-c1cc(Cl)cc(Cl)c1 [I-316] | 100% | – | – | – | pest or weed control at 20 ppm (Myzus persicae [2]): 100%; efficacy (kill in %) (Myzus persicae [3]): 95%
CCSc1cccc(Cl)c1S(=O)(=O)NC(=O)c1cn(-c2cc(F)cc(F)c2)c(C)n1 [I-387] | 100% | – | – | – | pest or weed control at 500 g/ha (Myzus persicae [1]): 70%; pest or weed control at 20 ppm (Myzus persicae [2]): 100%; efficacy (kill in %) (Myzus persicae [3]): 99%
CS(=O)(=O)NC(=O)c1cn(Cc2ccc(C(F)(F)F)c(Cl)c2)cn1 [I-412] | 100% | – | – | – | efficacy (Aphis gossypii): 90%
CCc1ccc(C)c(S(=O)(=O)NC(=O)c2nc(Cl)n(CCC(F)(F)F)c2Cl)c1 [I-456] | 100% | – | 100% | – | –
